In patent US6376510B1, “Neuromuscular relaxants” (Newlaxant LLC, priority 1997, dated 2002):
Read-outs that look alike come from different tables or passages of the source.

Experiments:
[1] = system: anesthetized rats (evoked responses of anterior tibial muscle); assay: In vivo neuromuscular block and cardiovascular side effects, anesthetized rat (Example 8, Table 3); conditions: for RI (recovery index): spontaneous recovery, 25-75% neuromuscular response; for Onset: time to 80-85% neuromuscular block
From the text: The neuromuscular blocking activity and other effects (e.g. cardiovascular side effects) of selected agents were investigated on several different experimental animals. Justification for this approach lies in the commonly known fact that the pharmacodynamic and pharmacokinetic properties of these agents are markedly variable from species to species. Therefore, the most important aspects of the projected therapeutic utility of these agents, e.g., neuromuscular blocking potency, onset and duration of action, and side effects cannot be ascertained in “in vitro” preparations or by using only one species of animals.
a) Adult, male albino rats were anesthetized with pentobarbital injected intraperitoneally. The trachea was cannulated for artificial respiration via a small animal respirator. The carotid artery was cannulated for recording blood pressure via a transducer and heart rate by a cardiotachograph on a polygraph. One external jugular vein was cannulated for i.v. drug administration. Neuromuscular function was monitored by electromyography, recording evoked responses from the anterior tibial muscle as a result of supramaximal nerve stimuli consisting of single or “train-of-four” rectangular pulses of 0.1-0.2 msec duration every 10-12 seconds, delivered to the sciatic or common peroneal nerve by a laboratory nerve stimulator. Another mode of stimulation included repeated single stimuli delivered at 0.1 Hz or 1 Hz. […] The agents were dissolved in physiologic saline and injected intravenously at appropriate time intervals. The intensity, onset, and duration of neuromuscular block and its type were determined with each agent. Through administering several doses, the doses corresponding to 50%, 80% and 90% neuromuscular block were determined. All agents were compared with selected standard neuromuscular blocking compounds, e.g. succinylcholine, pancuronium, mivacurium, or rocuronium.
Onset=time in minutes to 80-85% neuromuscular block.
RI=recovery index, minutes, spontaneous recovery, 25-75% neuromuscular response.
VB=vagal block, %, at 80-85% neuromuscular blocking dose.
ΔHR=change in heart rate, %, at 80-85% neuromuscular blocking dose.
ΔBP=change in arterial blood pressure, %, at 80-85% neuromuscular blocking dose.

[2] = system: anesthetized juvenile pigs; assay: animal or person; type: in vivo; conditions: pig; for ED50: intravenous dose causing 50% neuromuscular block; for RI (recovery index): spontaneous recovery, 25-75% neuromuscular response; for Onset: time to 80-85% neuromuscular block
From the text: Both electromyographic and mechanomyographic responses can be quantified.
The techniques described under a) and b) were employed in other species as needed with the modification that juvenile pigs were initially anesthetized with inhalation of halothane (Table 5) and monkeys were initially sedated with intramuscular ketamine injections prior to inducing and maintaining general anesthesia using pentobarbital and propofol administered intravenously (Table 6).

rabbits = assay: In vivo neuromuscular block and cardiovascular side effects, rabbit (Example 8, Table 7); conditions: for ED50: intravenous dose causing 50% neuromuscular block; for RI (recovery index): spontaneous recovery, 25-75% neuromuscular response; for Onset: time to 80-85% neuromuscular block
[3] = rat, at 80-85% neuromuscular blocking dose
[4] = at 80-85% neuromuscular blocking dose
[5] = Oryctolagus cuniculus, read-out: ED50
[6] = rat, intravenous dose causing 50% neuromuscular block

SMILES	ED50 ([1]; Rattus norvegicus, iv) [mg/kg]	VB (vagal block) [1, 3] [%]	ΔBP (change in arterial blood pressure) [1, 3] [%]	ΔH (change in heart rate) [1, 3] [%]	RI (recovery index) ([1]; rat) [min]	Onset ([1]; rat) [min]	ED50 ([2]; Sus scrofa, read-out: ED50) [mg/kg]	VB (vagal block) [2, 4] [%]	ΔBP (change in arterial blood pressure) [2, 4] [%]	ΔH (change in heart rate) [2, 4] [%]	RI (recovery index) [2] [min]	Onset [2] [min]	ED50 (rabbits; [5]) [mg/kg]	ΔBP (change in arterial blood pressure) (rabbits; [4]) [%]	ΔH (change in heart rate) (rabbits; [4]) [%]	RI (recovery index) (rabbits) [min]	Onset (rabbits) [min]	ED50 [1, 6] [mg/kg]	VB (vagal block) ([2]; in vivo) [%]	ΔBP (change in arterial blood pressure) ([2]; in vivo) [%]	further results
CCC(=O)Oc1ccc(C[N+]2(C)[C@@H]3CC[C@H]2C[C@@H](OC(=O)CCCC(=O)O[C@H]2C[C@H]4CC[C@@H](C2)[N+]4(C)Cc2ccc(OC(=O)CC)c(OC(=O)CC)c2)C3)cc1OC(=O)CC.[Br-].[Br-] (stereo partly drawn) [bis[N-(3,4-dipropionyloxybenzyl)tropanium-3α-yl]glutarate dibromide]	0.3	0	0	0	0.5	0.7	0.45	70	0	0	0.6	1.1	0.065	0	0	0.8	1				
COc1cc(C[N+]2(C)C3CCC2CC(OC(=O)C2C4C=CC(C4)C2C(=O)OC2CC4CCC(C2)[N+]4(C)Cc2cc(OC)c(OC(C)=O)c(OC)c2)C3)cc(OC)c1OC(C)=O.[Br-].[Br-] (stereo not drawn) [bis[N-(4-acetoxy-3,5-dimethoxybenzyl)tropanium-3α-yl]trans-3,6-endomethylene-1,2,3,6-tetrahydrophthalate dibromide]		20	0	0	0.8	0.7					2	0.54				0.45	0.45	0.2	26	0	ΔH (change in heart rate) ([2]; in vivo): 0%; ED50 [2]: 0.343 mg/kg; ΔBP (change in arterial blood pressure) (rabbits; in vivo): 0%; ΔH (change in heart rate) (rabbits; in vivo): 0%; ED50 (rabbits): 0.145 mg/kg
CCC(=O)Oc1ccc(C[N+]2(C)C3CCCC2CC(OC(=O)CCCCC(=O)OC2CC4CCCC(C2)[N+]4(C)Cc2ccc(OC(=O)CC)c(OC(=O)CC)c2)C3)cc1OC(=O)CC.[Br-].[Br-] (stereo not shown) [bis[N-(3,4-dipropionyloxybenzyl)granataninium-3-yl]adipate dibromide]					0.35	0.4					0.4	0.45				0.5	0.5	0.32	43	0	VB (vagal block) ([1]; rat, in vivo): 0%; ΔBP (change in arterial blood pressure) ([1]; rat, in vivo): −4%; ΔH (change in heart rate) ([1]; rat, in vivo): 0%; ΔH (change in heart rate) ([2]; in vivo): 0%; ED50 [2]: 0.275 mg/kg; ΔBP (change in arterial blood pressure) (rabbits; in vivo): 0%; ΔH (change in heart rate) (rabbits; in vivo): 0%; ED50 (rabbits): 0.16 mg/kg
COc1cc(C[N+]2(C)[C@@H]3CC[C@H]2C[C@@H](OC(=O)CCCCCCCCCC(=O)O[C@H]2C[C@H]4CC[C@@H](C2)[N+]4(C)Cc2cc(OC)c(OC(C)=O)c(OC)c2)C3)cc(OC)c1OC(C)=O.[Br-].[Br-] (stereo partly drawn) [bis[N-(4-acetoxy-3,5-dimethoxybenzyl)tropanium-3α-yl]1,9-nonanedicarboxylate dibromide]	0.5	99	0	0	0.5	0.4	0.6	90	0	0	1.2	0.5	0.5	0	0	0.35	0.35				
CC(=O)Oc1ccc(C[N+]2(C)C3CCC2CC(OC(=O)C2C4C=CC(C4)C2C(=O)OC2CC4CCC(C2)[N+]4(C)Cc2ccc(OC(C)=O)c(OC(C)=O)c2)C3)cc1OC(C)=O.[Br-].[Br-] (stereo not drawn) [bis[N-(3,4-diacetoxybenzyl)tropanium-3β-yl]trans-3,6-endomet] [bis[N-(3,4-diacetoxybenzyl)tropanium-3β-yl]trans-3,6-endomethylene-1,2,3,6-tetrahydrophthalate dibromide]		45	0	0	0.5	0.68					2	1.1				0.75	0.8	0.258	100	−5	ΔH (change in heart rate) ([2]; in vivo): −10%; ED50 [2]: 0.16 mg/kg; ΔBP (change in arterial blood pressure) (rabbits; in vivo): 0%; ΔH (change in heart rate) (rabbits; in vivo): 0%; ED50 (rabbits): 0.21 mg/kg
CCC(=O)Oc1ccc(C[N+]2(C)C3CCCC2CC(OC(=O)C2CCC2C(=O)OC2CC4CCCC(C2)[N+]4(C)Cc2ccc(OC(=O)CC)c(OC(=O)CC)c2)C3)cc1OC(=O)CC.[Br-].[Br-] (stereo not shown) [bis[N-(3,4-dipropionyloxybenzyl)granataninium-3-yl]cyclobutane-1,2-dicarboxylate dibromide]					0.35	0.45					0.4	0.5				0.5	0.55	0.155	18	0	VB (vagal block) ([1]; rat, in vivo): 0%; ΔBP (change in arterial blood pressure) ([1]; rat, in vivo): 0%; ΔH (change in heart rate) ([1]; rat, in vivo): 0%; ΔH (change in heart rate) ([2]; in vivo): 0%; ED50 [2]: 0.19 mg/kg; ΔBP (change in arterial blood pressure) (rabbits; in vivo): 0%; ΔH (change in heart rate) (rabbits; in vivo): 0%; ED50 (rabbits): 0.225 mg/kg
CCC(=O)Oc1c(OC)cc(C[N+]2(C)[C@@H]3CC[C@H]2C[C@@H](OC(=O)C2CCCC(C(=O)O[C@H]4C[C@H]5CC[C@@H](C4)[N+]5(C)Cc4cc(OC)c(OC(=O)CC)c(OC)c4)C2)C3)cc1OC.[Br-].[Br-] (stereo partly drawn) [bis[N-(3,5-dimethoxy-4-propionyloxybenzyl)tropanium-3α-yl]cyclohexane-1,3-dicarboxylate dibromide]	0.27	0	0	0	0.45	0.55	0.25	30	0	0	1.3	0.7	0.4	0	0	0.4	0.45				
CCC(=O)Oc1ccc(C[N+]2(C)[C@@H]3CC[C@H]2C[C@@H](OC(=O)CCCCC(=O)O[C@H]2C[C@H]4CC[C@@H](C2)[N+]4(C)Cc2ccc(OC(=O)CC)c(OC(=O)CC)c2)C3)cc1OC(=O)CC.[Br-].[Br-] (stereo partly drawn) [bis[N-(3,4-dipropionyloxybenzyl)tropanium-3α-yl]adipate dibromide]	0.217	18	0	0	0.4	0.6	0.3	65	0	0	0.75	0.65	0.075	0	0	0.65	0.9				
